Activity calls are given as the source filed them. The rule behind the calls is not given here.
Experiments:
[1] = Binding affinity to F10T duplex DNA (unknown origin) assessed as change in melting temperature at 1 uM by FRET assay
[2] = Binding affinity to 5'-FAM/3'-TAMARA labelled c-KIT2 G-quadruplex DNA (unknown origin) assessed as change in melting temperature at 1 uM by FRET assay
[3] = Binding affinity to 5'-FAM/3'-TAMARA labelled c-KIT1 G-quadruplex DNA (unknown origin) assessed as change in melting temperature at 2 uM by FRET assay
[4] = Binding affinity to F10T duplex DNA (unknown origin) assessed as change in melting temperature at 2 uM by FRET assay
[5] = Binding affinity to biotinylated c-KIT1 G-quadruplex DNA (unknown origin) by SPR assay
[6] = Binding affinity to 5'-FAM/3'-TAMARA labelled c-KIT1 G-quadruplex DNA (unknown origin) assessed as change in melting temperature at 1 uM by FRET assay
[7] = Binding affinity to biotinylated duplex DNA (unknown origin) by SPR assay
[8] = Selectivity ratio of Kd for biotinylated duplex DNA (unknown origin) to Kd for biotinylated c-KIT1 G-quadruplex DNA (unknown origin)
HeLa = assay: Cytotoxicity against human HeLa cells after 48 hrs by MTT assay; type: functional, cell-based
BJ = assay: Cytotoxicity against human BJ cells after 48 hrs by MTT assay; type: cell-based
[9] = Binding affinity to 5'-FAM/3'-TAMARA labelled c-KIT1 G-quadruplex DNA (unknown origin) assessed as change in melting temperature at 2 uM in presence ds26 DNA by FRET assay
K562 = assay: Cytotoxicity against human K562 cells after 48 hrs by MTT assay; type: functional, cell-based; conditions: K562, 48 h
A549 = assay: Cytotoxicity against human A549 cells after 48 hrs by MTT assay; type: functional, cell-based; conditions: A549, 48 h
[10] = Binding affinity to c-KIT1 G-quadruplex DNA (unknown origin) assessed as maintainance of parallel c-KIT G-quadruplex conformation at 5 uM in presence of KCl measured after 10 mins by CD-spectroscopic analysis
[11] = Binding affinity to c-KIT2 G-quadruplex DNA (unknown origin) assessed as ability to promote c-KIT G-rich sequences to form parallel G-quadruplex at 25 uM in absence of KCl measured after 10 mins by CD-spectroscopic analysis
[12] = Binding affinity to c-KIT1 G-quadruplex DNA (unknown origin) assessed as 1:1 binding stoichiometry between compound and G-quadruplex DNA by Job's plot method
[13] = Binding affinity to c-KIT1 G-quadruplex DNA (unknown origin) assessed as hyperchromicity at 5 uM measured after 10 mins by fluorescence spectroscopic method
[14] = Binding affinity to c-KIT2 G-quadruplex DNA (unknown origin) assessed as maintainance of parallel c-KIT G-quadruplex conformation at 5 uM in presence of KCl measured after 10 mins by CD-spectroscopic analysis
[15] = Binding affinity to c-KIT1 G-quadruplex DNA (unknown origin) measured after 10 mins by UV-vis spectroscopic method
[16] = Binding affinity to c-KIT1 G-quadruplex DNA (unknown origin) assessed as red shift at 10 uM measured after 10 mins by UV-vis spectroscopic method
[17] = Binding affinity to c-KIT1 G-quadruplex DNA (unknown origin) assessed as ability to promote c-KIT G-rich sequences to form parallel G-quadruplex at 25 uM in absence of KCl measured after 10 mins by CD-spectroscopic analysis
[18] = Binding affinity to c-KIT1 G-quadruplex DNA (unknown origin) assessed as 1:1 binding stoichiometry between compound and G-quadruplex DNA 10 uM by ESI-MS spectra analysis
[19] = Binding affinity to c-KIT1 G-quadruplex DNA (unknown origin) assessed as isosbestic point at 10 uM measured after 10 mins by UV-vis spectroscopic method
[20] = Binding affinity to c-KIT1 G-quadruplex DNA (unknown origin) assessed as hyperchromicity at 10 uM measured after 10 mins by UV-vis spectroscopic method

SMILES	ΔTm [1]	ΔTm [2]	ΔTm [3]	ΔTm [4]	Kd [5]	ΔTm [6]	Kd [7]	Selectivity ratio [8]	IC50 (HeLa)	IC50 (BJ)	Activity [9]	IC50 (K562)	IC50 (A549)	further results
COc1cc2c(cc1OC)-c1nc3ccccc3c(Cl)c1CC2	0.7 °C	0.1 °C	0.2 °C	0.1 °C	> 20 µM	0.1 °C	> 20 µM							
COc1cc2c(cc1OC)-c1nc3ccccc3c(NCCN3CCN(C)CC3)c1CC2	1.7 °C	9 °C	22.6 °C	2 °C	3.3 µM	17.4 °C	17 µM	5.2	5.3 µM	7.9 µM	Active	22.9 µM	3 µM	
COc1cc2c(cc1OC)-c1nc3ccccc3c(NCCCN(C)C)c1CC2	1.3 °C	9 °C	20.4 °C	2.3 °C	3.5 µM	12.3 °C	> 20 µM	> 5.7	5.1 µM	4.2 µM	Active	6.7 µM	3.6 µM	
COc1cc2c(cc1OC)-c1c(c(NCCCN3CCCC3)c3ccccc3[n+]1C)CC2	1.1 °C	4.7 °C	14 °C	0.3 °C	3.3 µM	10.7 °C	> 20 µM	> 6.1	> 50 µM	> 50 µM	Active	19.2 µM	> 50 µM	
COc1cc2c(cc1OC)-c1c(cc3c(OCCCN4CCCCC4)c(OC)ccc3[n+]1C)CC2	0.2 °C	4.4 °C	12.2 °C	0.7 °C	2.8 µM	4.4 °C	> 20 µM	> 7.1			Active			
COc1cc2c(cc1OC)-c1nc3ccccc3c(NCCCN3CCCCC3)c1CC2	1.4 °C	8.1 °C	20.2 °C	2.1 °C	3.9 µM	11.6 °C	> 20 µM	> 5.1	9.9 µM	12.3 µM	Active	3.9 µM	4.4 µM	
COc1cc2c(cc1OC)-c1nc3ccccc3c(NCCN3CCCCC3)c1CC2	0.1 °C	2.6 °C	7.8 °C	0.2 °C	7.8 µM	4.7 °C	> 20 µM	> 2.6	39.7 µM	> 50 µM	Active	13.1 µM	18.5 µM	
COc1cc2c(cc1OC)-c1c(c(NCCCN(C)C)c3ccccc3[n+]1C)CC2	0.8 °C	3.7 °C	10.7 °C	0.3 °C	5.8 µM	8.6 °C	> 20 µM	> 3.4	> 50 µM	> 50 µM	Active	> 50 µM	> 50 µM	
COc1cc2c(cc1OC)-c1nc3ccccc3c(NCCCN3CCN(C)CC3)c1CC2	1.3 °C	8.6 °C	22.9 °C	1.6 °C	2.8 µM	18.7 °C	> 20 µM	> 7.1	9.6 µM	13.7 µM	Active	4.2 µM	6.4 µM	
CCN(CC)CCCNC(=O)c1c2c(nc3ccccc13)-c1cc(OC)c(OC)cc1CC2	0.5 °C	0.6 °C	6.6 °C	0.5 °C	2.8 µM	3.4 °C	> 20 µM	> 7.1	> 50 µM	> 50 µM		> 50 µM	> 50 µM	
COc1cc2c(cc1OC)-c1nc3ccccc3c(NCCN(C)C)c1CC2	0.7 °C	6.7 °C	16.4 °C	0.9 °C	4.2 µM	12.1 °C	9.4 µM	2.2	11.7 µM	19 µM	Active	25.8 µM	5.6 µM	
COc1cc2c(cc1OC)-c1nc3ccccc3c(NCCN3CCCC3)c1CC2	0.8 °C	6.2 °C	16.7 °C	1.2 °C	2.5 µM	11.1 °C	7.7 µM	3.1	4.6 µM	5.2 µM	Active	4.8 µM	2.8 µM	
COc1cc2c(cc1OC)-c1c(c(NCCN3CCCC3)c3ccccc3[n+]1C)CC2	0.9 °C	3.7 °C	11.3 °C	0.4 °C	2.2 µM	7.7 °C	> 20 µM	> 9.1	44.3 µM	36 µM	Active	> 50 µM	36 µM	
CCN(CC)CCCNc1c2c([n+](C)c3ccccc13)-c1cc(OC)c(OC)cc1CC2	0.9 °C	3.6 °C	10.8 °C	0.4 °C	7.4 µM	7.5 °C	> 20 µM	> 2.7	> 50 µM	> 50 µM	Active	37.1 µM	> 50 µM	Activity [10]: Active; Activity [11]: Active; Activity [12]: Active; Activity [13]: Active; Activity [14]: Active; Kd [15]: 9.1 µM; Activity [16]: Active; Activity [17]: Active; Activity [18]: Active; Activity [19]: Active; Activity [20]: Active
COc1cc2c(cc1OC)-c1nc3ccccc3c(C(=O)NCCN3CCCC3)c1CC2	0.1 °C	0.6 °C	3.4 °C	0.6 °C	> 20 µM	2.2 °C	> 20 µM		> 50 µM	> 50 µM		> 50 µM	> 50 µM	
COc1cc2c(cc1OC)-c1nc3ccccc3c(NCCCN3CCCC3)c1CC2	1.1 °C	8.6 °C	20.5 °C	2.9 °C	2.9 µM	10.8 °C	> 20 µM	> 6.9	4.3 µM	6.7 µM	Active	4.2 µM	3.9 µM	
CCN(CC)CCNc1c2c(nc3ccccc13)-c1cc(OC)c(OC)cc1CC2	0.6 °C	6.5 °C	15.7 °C	0.9 °C	2.7 µM	9.8 °C	5.9 µM	2.2	17.9 µM	22.7 µM	Active	8 µM	5.8 µM	
CCN(CC)CCNc1c2c([n+](C)c3ccccc13)-c1cc(OC)c(OC)cc1CC2	0.9 °C	3.3 °C	10.3 °C	0.5 °C	3.9 µM	8.5 °C	> 20 µM	> 5.1	> 50 µM	> 50 µM	Active	24.9 µM	> 50 µM	
COc1cc2c(cc1OC)-c1c(c(NCCN(C)C)c3ccccc3[n+]1C)CC2	0.8 °C	2.8 °C	7.4 °C	0.3 °C	8 µM	6.7 °C	> 20 µM	> 2.5	> 50 µM	> 50 µM	Active	33.5 µM	> 50 µM	
COc1cc2c(cc1OC)-c1nc3ccccc3c(C(=O)NCCCN3CCCCC3)c1CC2	0.3 °C	0.6 °C	5.2 °C	0.6 °C	3.7 µM	3.3 °C	> 20 µM	> 5.4	> 50 µM	> 50 µM		> 50 µM	> 50 µM	

Source: ChEMBL document CHEMBL4011592, “Synthesis and evaluation of 7-substituted-5,6-dihydrobenzo[c]acridine derivatives as new c-KIT promoter G-quadruplex binding ligands” (Eur J Med Chem, 2017)
